Data: US20210060125A1, “METHOD AND USE OF PnPP-19 FOR PREVENTING AND TREATING EYE DISEASES” (priority 2019, published 2021)
“Also recorded” adds a separate entry of the source.

Legend:
[1] = system: Hen's egg chorioallantoic membranes (HET-CAM); experiment: HET-CAM ocular irritation model; parameters: key to Irritability classification: NI = Non- irritant; SI = severely irritant; settings: for OII ± SD (mean cumulative score) / OII ± SD: mean ± S.D., n = 6
Experimental: Hen's egg—chorioallantoic membranes (HET-CAM) were used to assess anti-irritant properties of different concentrations of PnPP-19. PnPP-19 was dissolved in 300 μL of saline in order to achieve the concentration of 40 μg, 80 μg, 160 μg, 320 μg, in 20 μL (the volume of one eye drop). Sodium chloride 0.9% (NaCl) was used as negative control and sodium hydroxide 0.1 M (NaOH) as a positive control.
The reactions were classified according to a semi-quantitatively analysis, on a scale from 0 (no reaction) to 3 (strong reaction). The ocular irritation index (OII) was then calculated by the following expression: […]
where h is time (in seconds) from the beginning of bleeding; l lysis, and c coagulation. The following classification was used: OII≤0.9: […]; 0.9<OII≤4.9: moderately irritant; 4.9<OII≤8.9: irritant; 8.9<OII≤21: severely irritant.

[2] = system: HA-induced glaucoma in rats; settings: cited from earlier work
[3] = system: ocular hypertensive rabbits; settings: hypertonic saline into the vitreous body; cited from earlier work
Human glaucoma = settings: cited from earlier work
Glaucomatous dogs = settings: cited from earlier work
[4] = system: male Wistar rats with retinal ischemia; experiment: Ischemic retina model, study 2 (pre-treatment or prevention); type: in vivo, rat; settings: pre-treatment; 3 cd.s.m−2, scotopic; n=6
Experimental: The potential neuroprotective effect of PnPP-19 in the retina was investigated with an animal model of ischemic injury. For this purpose, male Wistar rats were treated with PnPP-19 either before or after induction of ischemia (80 μg in 20 μl (one eye drop) once a day administration for seven days).
Male Wistar rats (180-200 g) were anesthetized intraperitoneally with ketamine hydrochloride 90 mg/kg and xylazine hydrochloride 10.0 mg/kg and the retinas were made ischemic according to the protocols of Hughes (HUGHES, W. F. Quantitation of ischemic damage in the rat retina. Exp Eye Res, 53(5): 573-82, 1991), and of Louzada-Junior et al. (Louzada-Junior, P., Dias, J. J., Santos, W. F., Lachat, J. J., Bradford, H. F., Coutinho-Netto, J. Glutamate Release in Experimental Ischaemia of the Retina: An Approach Using Microdialysis. J Neurochem, 59(1):358-63, 1992). IOP was elevated by cannulating the eye anterior chamber, with a sterile 27-gauge needle attached to a manometer/pump connected to an air reservoir (HUGHES, W. F. Quantitation of ischemic damage in the rat retina. Exp Eye Res, 53(5): 573-82, 1991) elevating the IOP to 155 mmHg for 40 min evoking ischemia (indicated by whitening of the eye fundus as blood flow is interrupted). […]
We measured different layer thicknesses to quantify the degree of cell loss to measure the ischemic damage in the rat retina. […]

healthy subjects = experiment: Phase 1 clinical trial, safety, tolerability and IOP; type: in vivo, human
Experimental: Twelve healthy subjects, 6 males and 6 females, were selected to evaluate the safety and tolerability of PnPP-19. PnPP-19 were applied as one eye drop per day (with 250 μg of peptide in 50 μL saline (0.5%)) for 7 days, in one eye, while vehicle (the formulation without the peptide) was applied in the contralateral eye. The eye were randomized in a double-blind way to each intervention.
The safety was analyzed by an ophthalmologist thought a slit lamp in conjunction with a biomiscrscope to examine the anterior and posterior segment of the eye. This procedure was performed in both eyes, in each subject, in the days 1, 2, 3, 4 and 7 of the treatment.
The tolerability was analyzed thought a daily tolerability questionnaire. […] One patient reported mild headache, that last minutes.
IOP was measured with a non-contact tonometer before and 1,2,4 6 and 24 hours after the instillations of PnPP-19 or vehicle.

normotensive Wistar rats = experiment: In vivo single-dose acute toxicology, topical eye drops; parameters: species or system rat; settings: single topical dose 40, 80, 160 μg in 20 μL
Experimental: Single-dose topical application of PnPP-19 was dissolved in 300 of saline at the dose of 40, 80 and 160 μg, in 20 μL of saline, in the form of eye drops, was evaluated in normotensive Wistar rats (150-200 g), n=4 rats per dose group. Fundoscopy and electroretinography were performed at days 0, 1, 7 and 15 after PnPP-19 administration. At day 15, eye tissue was collected to histopathological analysis. Day 0 was considered as a control time point for any dose to evaluate for observed differences.

[5] = system: glaucomatous male Wistar rats; type: in vivo, rat; settings: 72 hours after PnPP-19 instillation
Experimental: The effectiveness of the PnPP-19 was first evaluated by measuring the changes in IOP of glaucomatous male Wistar rats (180-220 g, 7 to 10 weeks old, n=6). Glaucoma was induced in the right eye by the injection of 30 μL hyaluronic acid (HA) (10 mg/mL) into the anterior chamber through the clear cornea once per week for 3 weeks on the same calendar day and at the same time. Evaluation of the IOP was performed using a TonoPen (Tono-PenVet, Reichert). To perform the measurements, unsedated animals were topically anesthetized by the instillation of 0.5% proxymetacaine hydrochloride. Three IOP readings (with SE less than 5%) were taken for each eye. The average of these three readings was considered the corresponding value of the IOP. Electroretinogram (ERG) was recorded before and after the glaucoma induction. Eyes were enucleated and corneas and retinas were prepared for histology. The groups of treatment were defined as Healthy or non-glaucomatous—left eye, where HA was not applied; Glaucomatous, Non-treated—right eye, where HA was applied, treated with control (vehicle, saline); […]
The effects of PnPP-19 on rat's vision at the end of the HA glaucomatous model was analyzed by ERG to evaluate if the peptide impacts the visual acuity. […]

[6] = system: male normotensive Wistar rat eye; experiment: Eye permeation and diffusion of fluorescence-labeled PnPP-19; type: in vivo; settings: 80 μg/20 μl eye drop in saline; 3 hours
Experimental: Fluorescence-labeled PnPP-19 (FITC) was applied topically in form of eye drops (peptide dissolved in saline) in a dose of 80 μg/20 μl in the male normotensive Wistar rat eye. Vehicle (saline) was applied in the contralateral eye to be used as control. After 3 hours the eyes were enucleated and prepared for histological analysis using fluorescence microscope APOTOME.2 ZEISS.

[7] = all concentrations tested (40-320 μg in 20 μL)
[8] = daily tolerability questionnaire, n=12

[Na+].[OH-] [0.1M NaOH, sodium hydroxide, reference compound]
Irritability classification ([1]; 0.1 M, positive control): SI | irritancy ranking in words ([1]; 0.1 M, positive control): severely irritant (8.9<OII≤21: severely irritant) | OII ± SD (mean cumulative score) ([1]; 0.1 M, positive control): 21.11 ± 0.32 | OII ± SD (mean cumulative score) ([1]; 0.1 M, positive control, listed as 0.1 M NaOH): 21.11±0.32

CC(C)OC(=O)CCC/C=C\C[C@@H]1[C@@H](CC[C@@H](O)CCc2ccccc2)[C@H](O)C[C@@H]1O [Latanoprost]
Average IOP reduction (%) [2]: 28.1% | effect on ocular hypertension [3]: not | Average IOP reduction (%) (Human glaucoma): 13.1%

O=C(CCC/C=C\C[C@@H]1[C@@H](CC[C@@H](O)CCc2ccccc2)[C@H](O)C[C@@H]1O)OCCCCO[N+](=O)[O-] [Latanoprostene Bunod]
effect on ocular hypertension [3]: significantly blunted | Average IOP reduction (%) (Human glaucoma): 31% | reduction in IOP (Glaucomatous dogs): 44%

CC(C)(C)NC[C@H](O)COc1nsnc1N1CCOCC1 [Timolol]
Average IOP reduction (%) [2]: 25.3% | Average IOP reduction (%) (Human glaucoma): 18%

Ac-GERRQYFWIAWYKLANSKK-NH2 (N-terminus and C-terminus assumed) [PnPP-19, Gly Glu Arg Arg Gln Tyr Phe Trp Ile Ala Trp Tyr Lys Leu Ala Asn Ser Lys Lys]
Irritability classification ([1]; 40 μg in 20 μL saline): NI | OII ± SD ([1]; 40 μg in 20 μL saline): ≤0.9 ± 0.0 | Irritability classification ([1]; 80 μg in 20 μL saline): NI | OII ± SD ([1]; 80 μg in 20 μL saline): ≤0.9 ± 0.0 | Irritability classification ([1]; 160 μg in 20 μL saline): NI | OII ± SD ([1]; 160 μg in 20 μL saline): ≤0.9 ± 0.0 | Irritability classification ([1]; 320 μg in 20 μL saline): NI | OII ± SD ([1]; 320 μg in 20 μL saline): ≤0.9 ± 0.0 | irritancy ranking in words [1, 7]: non-irritant | mean cumulative scores (OII) [1, 7]: ≤ 0.9 | signs of vascular response ([1]; all concentrations tested, observed up to 5 min): did not show any signs of vascular response | ERG b-amp/a-amp ratio [4]: an increasing tendency in b/a ratio; also recorded: prevents vision loss | Safety, slit lamp examination of anterior and posterior segment (healthy subjects; 250 μg in 50 μL saline (0.5%), one drop per day for 7 days, n=12): no safety finding | Blood pressure, heart rate, weight, physical examination, electrocardiogram (healthy subjects; 250 μg in 50 μL, one drop per day for 7 days, n=12): no difference in blood pressure, heart rate, weight, physical examination and electrocardiogram results | Relation of reported adverse events to treatment (investigator) (healthy subjects; daily tolerability questionnaire, four events reported): none of those adverse events were related to PnPP-19 | Eye burning after instillation (healthy subjects; [8]): in one patient | Puritis in the eye after instillation (healthy subjects; [8]): one patient | Histological morphology of cornea and retina (normotensive Wistar rats; day 15, n=4): keeps the same morphology; also recorded: does not alter the retinal morphology; also recorded: does not alter the cornea morphology | Fundoscopy vs day 0 (normotensive Wistar rats; days 1, 7, 15, n=4 per dose): No difference was observed; also recorded: does not affect retinal vessels | Electroretinography a and b wave vs day 0 (normotensive Wistar rats; up to day 15): absence of retinal nerve damage | Dark-adapted ERG vs glaucomatous non-treated group [5]: no difference | Fluorescence in cornea, vitreous body and retina vs vehicle [6]: permeates the cornea and reaches the retina

Latanoprost
reduction in IOP (Glaucomatous dogs): 27%
